{
  "source": "patent US11401255B2",
  "about": "“Small molecule activators of Parkin enzyme function” (Mayo Foundation for Medical Education and Research, priority 2016, dated 2022)",
  "key": {"Parkin [1]": {"biological_target": "T1, Parkin (Homo sapiens (Human), UniProt O60260)", "T1 sequence (O60260 whole entry)": "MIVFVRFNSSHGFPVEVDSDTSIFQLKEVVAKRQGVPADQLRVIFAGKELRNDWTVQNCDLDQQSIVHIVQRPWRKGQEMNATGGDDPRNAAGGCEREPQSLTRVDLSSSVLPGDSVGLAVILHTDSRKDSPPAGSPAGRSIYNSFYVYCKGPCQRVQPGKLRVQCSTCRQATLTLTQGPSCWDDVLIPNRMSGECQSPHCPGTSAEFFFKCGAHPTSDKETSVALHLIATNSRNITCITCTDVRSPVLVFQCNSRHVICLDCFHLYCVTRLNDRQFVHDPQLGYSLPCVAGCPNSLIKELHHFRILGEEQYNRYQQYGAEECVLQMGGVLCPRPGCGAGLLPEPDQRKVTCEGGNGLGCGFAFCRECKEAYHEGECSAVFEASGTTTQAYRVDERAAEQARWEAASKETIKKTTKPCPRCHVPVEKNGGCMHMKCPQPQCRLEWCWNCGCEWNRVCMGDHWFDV", "test": "In vitro E2 discharge assay", "format": "biochemical", "settings": "Ub-loaded UbcH7, presence of PINK1, vs DMSO", "experimental": "(§1) FIGS. 15A-15H show Parkin activation in primary fibroblasts, neuronal cells and in vitro. Positive control (PC) cells were treated with DMSO and 10 μM of CCCP. Negative control (NC) cells were treated with 3.5 μM CCCP, some cells were left untreated (−). […] Vinculin was used as loading control. […] FIG. 15C: Human fibroblasts were directly converted to neurons and treated as in FIG. 15B. […] Beta III tubulin confirmed successful conversion of fibroblasts to iNeurons. FIG. 15D: Rat PC12 cells were treated as in FIG. 15A. Western blots show enhanced ubiquitylation of MFN2 and TOM70, and robust pSer65-Ub induction similar to PC, but not NC cells. FIG. 15E: In vitro E2 discharge assay. Recombinant Parkin was pre-incubated with compound 4 or DMSO as control and was mixed to Ub-loaded UbcH7. […] Control reactions were performed without PINK1 or Parkin. FIG. 15F: In vitro assay with isolated mitochondria from untreated or CCCP-treated HeLa cells lacking Parkin. Mitochondrial preparations were mixed with recombinant Parkin, E1, UbcH7, ATP and either compound 4 or DMSO as a control and incubated for the indicated times. […] Control samples were incubated in reaction mix without Parkin. […]\nAs the first readout for Parkin activity, E2 Ub discharge assays were performed, complementary to the Ub-charging assays of Parkin C431S in cells. […]"}, "Parkin [2]": {"biological_target": "T1, Parkin", "test": "In vitro ubiquitylation assay with isolated mitochondria", "format": "biochemical", "settings": "mitochondria from CCCP-treated HeLa cells lacking Parkin, vs DMSO", "experimental": "as §1\nThe in vitro assays with mitochondrial preparations were performed as follows. […] The mitochondrial pellet was resuspended in solution B and the protein concentration determined by BCA. […]"}, "Parkin [3]": {"biological_target": "T1, Parkin", "test": "Thermal shift (protein melting) assay", "format": "binding", "settings": "500 nM compound, 50 ng purified Parkin, SYPRO orange", "experimental": "FIGS. 15A-15H show Parkin activation in primary fibroblasts, neuronal cells and in vitro. Positive control (PC) cells were treated with DMSO and 10 μM of CCCP. Negative control (NC) cells were treated with 3.5 μM CCCP, some cells were left untreated (−). […] Vinculin was used as loading control. […] FIG. 15C: Human fibroblasts were directly converted to neurons and treated as in FIG. 15B. […] Beta III tubulin confirmed successful conversion of fibroblasts to iNeurons. FIG. 15D: Rat PC12 cells were treated as in FIG. 15A. Western blots show enhanced ubiquitylation of MFN2 and TOM70, and robust pSer65-Ub induction similar to PC, but not NC cells. FIG. 15E: In vitro E2 discharge assay. Recombinant Parkin was pre-incubated with compound 4 or DMSO as control and was mixed to Ub-loaded UbcH7. […] Control reactions were performed without PINK1 or Parkin. FIG. 15F: In vitro assay with isolated mitochondria from untreated or CCCP-treated HeLa cells lacking Parkin. […]\nTo validate direct binding of activating compounds to Parkin as predicted from the in silico approach, a thermofluor shift assay was used. Recombinant purified Parkin was mixed together with compound 4 or DMSO as a control and the melting temperature was monitored using SYPRO Orange dye.\nThe thermal shift assay was performed as follows. […] Data was exported and analyzed using the Protein Melting Analysis tool (Roche Applied Science)."}},
  "data": [
    {"smiles": "O=C(Cn1ccnc1-c1ccccn1)Nc1ccc(-c2ccccc2)cc1", "note": "[Compound 4]", "values": [
      {"measurement": "E2 discharge", "setting": "Parkin [1]", "result": "slightly more E2 discharge"},
      {"measurement": "MFN1 ubiquitylation", "setting": "Parkin [2]", "result": "increased ubiquitylation"},
      {"measurement": "Parkin melting temperature shift", "setting": "Parkin [3]", "result": 3, "unit": "°C"}
    ]}
  ]
}
